Results: US9895303B2, “Peptide, method and composition for stimulating melanogenesis” (Renorigin Innovation Institute Co., Ltd., priority 2016, dated 2018)

Assays:
Type in all cases: cell-based, murine
B16F10 melanoma cells = experiment: Visual pigmentation of B16F10 cells and culture medium; settings: 10-50 μg/ml, 5 days, medium change at day 3
Protocol: B16F10 melanoma cells were treated with 10-50 μg/ml peptide of SEQ ID NO: 1 (“Lf B-17-34”) for 5 days with a medium change at day 3. The cells and medium were recovered in test tubes. Kojic acid is used as negative control in the cellular study due to known inhibitory effects on tyrosinase activity. IBMX is used as positive control in the cellular study due to known elevator of cellular cAMP level, to stimulate melanogenesis.
(§1) B16F10 murine melanoma cells were cultured in phenol red-free DMEM with 10% fetal bovine serum and penicillin/streptomycin (100 IU/50 […]) in a humidified atmosphere containing 5% CO2 in air at 37° C.

Tyrosinase [1] = experiment: DOPA staining; settings: B16F10 cells, 10-50 μg/ml, 4 days
Protocol: as §1
DOPA staining was also performed to measure tyrosinase enzyme activity. B16F10 cells were seeded in 6-well plate (2×10^4 cells/well) and incubated overnight to allow cells to adhere. After treating with various test samples in an incubator for 4 days, cells were washed with PBS, fixation with 2% paraformaldehyde and washing with PBS a further three times, the cells were incubated with 0.1% DOPA (dissolved in 0.1 M PBS) at 37° C. for 5 hour, and observed using light microscopy (Wang et al., Exp Ther Med 6, 967-972, 2013).

B16F10 cells = experiment: Melanin content assay; settings: 10-50 μg/ml, 5 days
Protocol: as §1
Melanin contents of cultured B16F10 cells were measured according to the method (Lee et al., J Invest Dermatol 124, 405-411, 2005) with a slight modification. Briefly, B16F10 cells were seeded in 6-well plate (2×10^4 cells/well) and incubated overnight to allow cells to adhere. After treating with various test samples in an incubator for 5 days, washed, trypsinized and counted before pelleting. Melanin per cell was quantified after boiling in 1 M NaOH for 1 hour and melanin content in each sample was read from a calibration curve against synthetic eumelanin at 400 nm and converted to means±SE melanin pg/cell from 3 independent experiments.

Tyrosinase [2] = experiment: Tyrosinase assay (cell lysate, L-DOPA); settings: B16F10 cells, 10-50 μg/ml, 5 days
Protocol: as §1
Tyrosinase is the rate limiting enzyme in the melanogenic pathway. Its measurement provides a highly specific and sensitive indication of degree of induction of melanogenesis. Tyrosinase enzyme activity of cultured B16F10 cells were measured according to the method of (Bellei et al., J Biol Chem 285, 7288-7299, 2010) with a slight modification. Briefly, B16F10 cells were seeded in 6-well plate (2×10^4 cells/well) and incubated overnight to allow cells to adhere. After treating with various test samples in an incubator for 5 days, cells were washed with PBS and then harvested using trypsin. At the end point, the cells were solubilized with phosphate buffer (pH 6.8) containing 1% Triton X-100. The cells were then disrupted by freezing and thawing, and the lysates were clarified by centrifugation at 10,000×g for 10 min. After protein quantification and adjustment of protein concentrations with lysis buffer, 100 μl of each lysate (each containing the same amount of protein) were aliquoted into the wells of a 96-well plate, and 100 μl of 5 mM L-DOPA were then added to each well. The absorbance was measured spectrophotometrically at 475 nm following a […] incubation period at 37° C. […]

FKCRRWQWRMKKLGAPSI (listed as Bos taurus) [Lf B-17-34]
pigmentation in cells and in medium (B16F10 melanoma cells): hyper pigmentation in cells as in medium to a similar extent
DOPA staining (Tyrosinase [1]): strong DOPA staining
melanin synthesis (melanin content in cells, melanin secretion in medium) (B16F10 cells): significantly increased melanin synthesis in a concentration-dependent manner
tyrosinase activity (Tyrosinase [2]): significantly increased tyrosinase activity
